Laboratory results: PubChem BioAssay AID1963985 (Molecular Pharmacology Branch, DTP, NCI, 2024)

Tested on: 252836-082-R-J2-PDC tumor spheroids, viability
Assay: Anticancer human tumor 252836-082-R-J2-PDC patient-derived head and neck squamous cell carcinoma cell line growth inhibition [PI3K]
Conditions: spheroids with HUVEC and MSC; for IC50: curve of first compound; for viability, T/C: stronger effect = lower value
Description: Combinatorial screen of targeted agents with the PI3K inhibitors inavolisib, alpelisib, duvelisib, and copanlisib in multi-cell type tumor spheroids
A high-throughput screen of multi-cell type tumor spheroids was designed to identify active combinations of targeted small molecules and PI3K pathway inhibitors. Complex spheroids include a stromal component modeled by human endothelial cells (HUVEC) and fibroblasts modeled by human mesenchymal stem cells (MSCs). The concentration ranges selected for each drug and investigational agent were based upon clinically achievable concentrations if the clinical Cmax of the agent was known.
Compounds. The drugs and investigational agents: inavolisib (NSC800729), alpelisib (NSC765974), duvelisib (NSC772469), copanlisib (NSC816437), ipatasertib (NSC767898), afuresertib (NSC778305), talazoparib (NSC767125), sapanisertib (NSC764658), selumetinib (NSC741078), tovorafenib (DAY101, NSC766906), vemurafenib (NSC761431), ravoxertinib (NSC781343), sotorasib (NSC818433), MRTX1133 (NSC 836407), abemaciclib (NSC 768073), palbociclib (NSC758247), venetoclax (NSC 766270), SY5609 (NSC837396), enzalutamide (NSC755605), and darolutamide (NSC825331), were obtained from the National Cancer Institute (NCI) Developmental Therapeutics Program Chemical Repository. The FDA-approved anticancer drug set is available from the NCI Developmental Therapeutics Program. […] The stock solutions were prepared in dimethyl sulfoxide (DMSO, Sigma-Aldrich, St. Louis, MO, cat. D2650) at 800-fold the tested concentration and stored at -70 degrees C prior to their use. All drugs and investigational agents were tested over a range starting from a high concentration at or near the clinical Cmax and decreasing in half-log increments. If the clinical Cmax for an agent had not been determined, the highest concentration tested was 10 microM.
Cell Culture. All cells were maintained in an incubator at 37 degrees C and 5% CO2 with 95% humidity. The PDC lines were cultured according to standard operating procedures established by the NCI PDMR (https://pdmr.cancer.gov/sops/default.htm). All PDCs were thawed and cultured in Matrigel-coated flasks prepared with a working solution of 1X Ham's F-12 nutrient mix, without supplementation (Invitrogen, Waltham, MA, cat. 11765054), 100 U/mL penicillin-streptomycin (Invitrogen, cat. 15140122), and 2.5% Matrigel (Corning Inc., Corning, NY, cat. 354248) for the first three passages. The 354836-022-R-J1-PDC, 475296-252-R-J1-PDC, and 997726-040-R-J2-PDC lines were cultured in 6A media, which includes advanced DMEM/F-12 (Thermo Fisher Scientific, cat. 12634028), 10 mM HEPES (Thermo Fisher Scientific, cat. 15630080), 1X GlutaMAX supplement (Thermo Fisher Scientific, cat. 35050061), 0.1 mg/mL primocin (InvivoGen, San Diego, CA, cat. ant-pm-2), 10% defined fetal bovine serum, heat inactivated (HyClone Laboratories Inc., Logan, UT, cat. SH30070.03HI), 50% L-WRN conditioned media (ATCC, cat. CRL-3276), 1.25 mM N-Acetyl-L-cysteine (Sigma-Aldrich, cat. A9165), 10 mM nicotinamide (Sigma-Aldrich, cat. N0636), 1X B-27 supplement (Thermo Fisher Scientific, cat. 17504044), 1X N-2 supplement (Thermo Fisher Scientific, cat. 17502048), and 10 microM Y-27632 dihydrochloride (Tocris Bioscience, Bristol, United Kingdom, cat. 1254). The 624824-186-R-J2-PDC line was cultured in 6C/Colon 1B media, which includes all 6A media components plus 50 ng/mL human EGF recombinant protein (Thermo Fisher Scientific, cat. PHG0311). […]
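Also: spheroids exposed to agents for seven days before readout.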
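For viability, T/C in this document: percent of vehicle DMSO control viability so 100% = untreated growth.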

CC1(C)CCC(CN2CCN(c3ccc(C(=O)NS(=O)(=O)c4ccc(NCC5CCOCC5)c([N+](=O)[O-])c4)c(Oc4cnc5[nH]ccc5c4)c3)CC2)=C(c2ccc(Cl)cc2)C1 + CC(Nc1ncnc2nc[nH]c12)c1cc2cccc(Cl)c2c(=O)n1-c1ccccc1
IC50 (second compound 0.0316 µM): > 10 µM | IC50 (second compound 0.1 µM): > 10 µM | IC50 (second compound 0.316 µM): > 10 µM | IC50 (second compound 1 µM): > 10 µM | IC50 (second compound 3.16 µM): > 10 µM | IC50 (second compound 10 µM): > 10 µM | viability, T/C (second compound 0.0316 µM, first compound 0.0316 µM): 96.7% | viability, T/C (second compound 0.0316 µM, first compound 0.1 µM): 88.3% | viability, T/C (second compound 0.0316 µM, first compound 0.316 µM): 95.9% | viability, T/C (second compound 0.0316 µM, first compound 1 µM): 93% | viability, T/C (second compound 0.0316 µM, first compound 3.16 µM): 87.3% | viability, T/C (second compound 0.0316 µM, first compound 10 µM): 81.8% | viability, T/C (second compound 0.1 µM, first compound 0.0316 µM): 102% | viability, T/C (second compound 0.1 µM, first compound 0.1 µM): 77.1% | viability, T/C (second compound 0.1 µM, first compound 0.316 µM): 79% | viability, T/C (second compound 0.1 µM, first compound 1 µM): 99.1% | viability, T/C (second compound 0.1 µM, first compound 3.16 µM): 80.8% | viability, T/C (second compound 0.1 µM, first compound 10 µM): 86.7% | viability, T/C (second compound 0.316 µM, first compound 0.0316 µM): 92.5% | viability, T/C (second compound 0.316 µM, first compound 0.1 µM): 100% | viability, T/C (second compound 0.316 µM, first compound 0.316 µM): 102% | viability, T/C (second compound 0.316 µM, first compound 1 µM): 106% | viability, T/C (second compound 0.316 µM, first compound 3.16 µM): 88.3% | viability, T/C (second compound 0.316 µM, first compound 10 µM): 81.6% | viability, T/C (second compound 1 µM, first compound 0.0316 µM): 81% | viability, T/C (second compound 1 µM, first compound 0.1 µM): 89.8% | viability, T/C (second compound 1 µM, first compound 0.316 µM): 77.5% | viability, T/C (second compound 1 µM, first compound 1 µM): 93.8% | viability, T/C (second compound 1 µM, first compound 3.16 µM): 92.1% | viability, T/C (second compound 1 µM, first compound 10 µM): 96% | viability, T/C (second compound 3.16 µM, first compound 0.0316 µM): 80.5% | viability, T/C (second compound 3.16 µM, first compound 0.1 µM): 84% | viability, T/C (second compound 3.16 µM, first compound 0.316 µM): 71.8% | viability, T/C (second compound 3.16 µM, first compound 1 µM): 81.2% | viability, T/C (second compound 3.16 µM, first compound 3.16 µM): 67% | viability, T/C (second compound 3.16 µM, first compound 10 µM): 65.7% | viability, T/C (second compound 10 µM, first compound 0.0316 µM): 61% | viability, T/C (second compound 10 µM, first compound 0.1 µM): 64.3% | viability, T/C (second compound 10 µM, first compound 0.316 µM): 68.6% | viability, T/C (second compound 10 µM, first compound 1 µM): 65.8% | viability, T/C (second compound 10 µM, first compound 3.16 µM): 50.4% | viability, T/C (second compound 10 µM, first compound 10 µM): 55.1%
